Reference: US11560597B2, “Application of epigenetic chromosomal interactions in cancer diagnostics” (Oxford BioDynamics, PLC, priority 2016, dated 2023)
Where “and” joins values, the source holds several entries; their conditions need not be identical. Identical values can stand only once. Entries after “also recorded” stand apart in the source; their conditions may differ.

How the values were obtained:
[1] = tested on: MMP1 chromosome conformations; assay: MMP-1 3C quantification in DBTRG-05MG (glioblastoma) cells treated with GSK864; format: cell-based
Procedure: (§1) MMP-1 3C quantification with no-fixation controls and a formaldehyde treated samples. The exemplary cell lines used in this application are: • (a) DBTRG-05MG (glioblastoma). • (b) HL-60 (acute myeloid leukaemia).
These cell lines have been treated with the IDH1 inhibitor GSK864 over 24 hrs and 48 hrs.

[2] = tested on: MMP1 chromosome conformations; assay: MMP-1 3C quantification in HL-60 (acute myeloid leukaemia) cells treated with GSK864; format: cell-based
Procedure: as §1
The HL60 cell lines have been treated with the IDH1 inhibitor GSK864 over 24 hrs and 48 hrs.

[3] = tested on: cKIT 3C interaction ORF3_4_54711719_54715167_54736749_54740853_FR; assay: cKIT 3C interaction PCR on imatinib treated BT142 cells; format: cell-based; conditions: 1 μm imatinib, 20 ng of template per well
Procedure: Example of novel data regarding the action of imatinib in the following imatinib responsive selected gene is described below. 20 ng of template was added to each well for samples treated with imatinib.
cKIT and exemplary data. The BT142 cells have been treated with 1 μm of imatinib. 20 ng of template was loaded into each well.
The product in well Cl has been confirmed as the cKIT interaction named above (ORF3_4_54711719_54715167_54736749_54740853_FR).

MMP1 3C interaction = MMP1 3C interaction hydrolysis probe qPCR in BT142 cell line; conditions: BT142 cells, imatinib 1 μM

Compound	Effect on MMP1 chromosome conformations (3C MMP1 copy number), in words ([1]; DBTRG cell line, GSK864 1 μm, over 24 hrs and 48 hrs)	Copy number in 20 ng ([1]; DBTRG cells, 24 hr, GSK 1 um, MMP1 3C)	Effect on MMP1 chromosome conformations (3C MMP1 copy number), in words ([2]; HL60 cell line, GSK864 1 μm, over 24 hrs and 48 hrs)	Cq ([2]; HL-60 cells, 48 hr GSK864)	cKIT 3C interaction in imatinib treated cells [3]	MMP1 copy number (MMP1 3C interaction; 20 ng of template per well)	Cq (MMP1 3C interaction; MMP1 3C interaction)
COc1c(C)cc(NC(=O)c2nn(Cc3ccc(F)cc3)c3c2CN(C(=O)c2ccc[nH]2)C[C@]3(C)C(N)=O)cc1C [GSK864]	binary difference; also recorded: direct action on 3C MMP1 copy number	NaN (NaN = 0 copies)	quantitative differences; also recorded: binary quantitative difference; also recorded: direct action on 3C MMP1 copy number	40.33 and 37.5 and 37.11			
Cc1ccc(NC(=O)c2ccc(CN3CCN(C)CC3)cc2)cc1Nc1nccc(-c2cccnc2)n1 [Imatinib]					completely absent	37.22 and 26.43 and 31.45	35.64 and 36.15 and 35.89
